Calls of active or inactive are those of the source. The calls are words filed in the database; no cut-off is given here.
Key:
Plasmodium falciparum [1] = experiment: Antimalarial activity as trophozoite arrest after 24 hrs against chloroquine-sensitive Plasmodium falciparum 3D7 infected human erythrocytes at 6 uM 96 hrs post infection; assay type: functional, organism-based
Plasmodium falciparum [2] = experiment: Antimalarial activity as 3rd generation ring-stage chloroquine-resistant Plasmodium falciparum W2 after 48 hrs dose then 48 hrs drug-free; assay type: functional, organism-based; conditions: W2, 48 h, read-out: IC50
Plasmodium falciparum [3] = experiment: (§1) Antimalarial activity as 2nd generation parasitaemia after 48 hrs against chloroquine-sensitive Plasmodium falciparum 3D7 infected human erythrocytes at 6 uM 0-24 hrs post invasion; assay type: functional
Plasmodium falciparum [4] = experiment: Antimalarial activity as 3rd generation ring-stage chloroquine-sensitive Plasmodium falciparum 3D7 after 48 hrs dose then 48 hrs drug-free; assay type: functional, organism-based; conditions: 3D7, 48 h
Plasmodium falciparum [5] = experiment: Antimalarial activity as 2nd generation parasitaemia after 48 hrs against chloroquine-sensitive Plasmodium falciparum 3D7 infected human erythrocytes at 6 uM 36-48 hrs post invasion; assay type: functional
Plasmodium falciparum [6] = experiment: Antimalarial activity as 2nd generation parasitaemia after 48 hrs against chloroquine-sensitive Plasmodium falciparum 3D7 infected human erythrocytes at 6 uM 12-36 hrs post invasion; assay type: functional
Plasmodium falciparum [7] = experiment: as §1; assay type: functional; remark: listed apart in the source
Plasmodium falciparum [8] = experiment: Antimalarial activity as 2nd generation parasitaemia after 48 hrs against chloroquine-sensitive Plasmodium falciparum 3D7 infected human erythrocytes at 6 uM 12-24 hrs post invasion; assay type: functional
Plasmodium falciparum [9] = experiment: Antimalarial activity as 2nd generation parasitaemia after 48 hrs against chloroquine-sensitive Plasmodium falciparum 3D7 infected human erythrocytes at 6 uM 0-12 hrs post invasion; assay type: functional
Plasmodium falciparum [10] = experiment: Antimalarial activity as 2nd generation parasitaemia after 48 hrs against chloroquine-sensitive Plasmodium falciparum 3D7 infected human erythrocytes at 6 uM 24-36 hrs post invasion; assay type: functional
Plasmodium falciparum [11] = experiment: Antimalarial activity as 2nd generation parasitaemia after 48 hrs against chloroquine-sensitive Plasmodium falciparum 3D7 infected human erythrocytes at 6 uM 24-48 hrs post invasion; assay type: functional
[12] = Tmax in patient with severe malaria at 200 mg, perorally; assay type: ADME, organism-based; conditions: human, in vivo, po
Plasmodium falciparum [13] = experiment: Antimalarial activity as 2nd generation parasitaemia after 48 hrs against chloroquine-sensitive Plasmodium falciparum 3D7 infected human erythrocytes at 6 uM 0-48 hrs post invasion; assay type: functional
Plasmodium falciparum [14] = experiment: Antimalarial activity as 2nd generation parasitaemia after 48 hrs against chloroquine-sensitive Plasmodium falciparum 3D7 infected human erythrocytes at 6 uM 12-48 hrs post invasion; assay type: functional
Plasmodium falciparum [15] = experiment: Antimalarial activity as 2nd generation ring-stage chloroquine-resistant Plasmodium falciparum W2 after 48 hrs by flow cytometry; assay type: functional, organism-based; conditions: W2, 48 h
Plasmodium falciparum [16] = experiment: Antimalarial activity as 2nd generation ring-stage chloroquine-sensitive Plasmodium falciparum 3D7 after 48 hrs by flow cytometry; assay type: functional, organism-based; conditions: 3D7, 48 h

For CO[C@H]1/C=C/O[C@@]2(C)Oc3c(C)c(O)c4c(O)c(c(/C=N/N5CCN(C)CC5)c(O)c4c3C2=O)NC(=O)/C(C)=C\C=C\[C@H](C)[C@H](O)[C@@H](C)[C@@H](O)[C@@H](C)[C@H](OC(C)=O)[C@@H]1C [RIFAMPIN], the Activity (Plasmodium falciparum [1]) was “Active”, the IC50 (Plasmodium falciparum [2]) was 528 nM and the Activity (Plasmodium falciparum [3]) was 16%. It also gave an IC50 (Plasmodium falciparum [4]) of 2830 nM, an Activity (Plasmodium falciparum [5]) of 93% and an Activity (Plasmodium falciparum [6]) of 13%. The Activity (Plasmodium falciparum [7]) was 14%, the Activity (Plasmodium falciparum [8]) was 36% and the Activity (Plasmodium falciparum [9]) was 65%. It also gave an Activity (Plasmodium falciparum [10]) of 49%, an Activity (Plasmodium falciparum [11]) of 25% and a Tmax [12] of 1 h. For the same molecule, the Activity (Plasmodium falciparum [13]) was 15%, the Activity (Plasmodium falciparum [14]) was 13% and the IC50 (Plasmodium falciparum [15]) was 274 nM. It also gave an IC50 (Plasmodium falciparum [16]) of 2990 nM.
